Measurements taken from PubChem BioAssay AID489027 (Sanford-Burnham Center for Chemical Genomics, 2010).
Active and inactive are the calls of the source. How the calls were made is not given here.

Each molecule was assayed against UPR counterscreen luciferase reporter, luminescence (assay: activators in UPR counterscreen luciferase reporter, dose response, counter-screen for adaptive UPR activator project, cell-based, luminescence (AID 489027)).
In the case of `COc1ccc(-c2csc(NC(=S)NC(=O)/C=C/c3ccco3)n2)cc1Br`, the EC50 is reported as “inactive”.
`COc1ccc(C(CCNCc2ccc(F)cc2)c2ccc(F)cc2)cc1` (stereo not given) was tested, and the EC50 was 13.6 µM.
For `O=C(NCCC1=CCCCC1)C(=O)NCC(c1ccco1)N1CCN(c2ccc(F)cc2)CC1` (stereo not given), the EC50 was > 80 µM (inactive).
For `Cc1cccn2c(=O)c3cc(C(=O)NC4CCCCCC4)sc3nc12`, the EC50 was > 80 µM (inactive).
In the case of `O=C(CSc1nc2ccccc2c(=O)n1-c1ccccc1)N1CCc2ccccc21`, the EC50 is reported as “inactive”.
With `COc1cc(NC(=O)c2ccc(C)cc2C)ccc1NC(=O)c1cc2ccccc2o1` the EC50 was “inactive”.
`O=C(Nc1ccc(NC(=O)c2sc3ccccc3c2Cl)cc1Cl)c1ccco1` was tested, and the EC50 was “inactive”.
For `COc1ccccc1Nc1nnc(SCC(=O)NC(=O)Nc2ccc3c(c2)OCCO3)s1`, the EC50 was > 80 µM (inactive).
With `NS(=O)(=O)c1ccc(NC(=O)COC(=O)c2cn(-c3ccccc3)nc2-c2ccc(F)cc2)cc1` the EC50 was “inactive”.
`CCOC(=O)/C(=C\c1ccccc1)C(=O)c1cc(C(C)=O)c(Nc2ccccc2)s1` was tested, and the EC50 was 3.71 µM.
With `NCCOc1ccc(C23CC4CC(CC(C4)C2)C3)cc1` the EC50 was 8.74 µM.
For `COc1cc([C@H]2c3[nH]c4ccccc4c3C[C@H]3C(=O)N4[C@@H](c5cc(OC)c(OC)c(OC)c5)c5[nH]c6ccccc6c5C[C@H]4C(=O)N23)cc(OC)c1OC`, the EC50 was 7.28 µM.
`Cc1ccc(Cc2cnc(NC(=O)/C(C#N)=C/c3ccc(-c4ccc([N+](=O)[O-])cc4)o3)s2)cc1` showed an EC50 of 11.3 µM.
`C=CCN=C1S/C(=C/c2cccc([N+](=O)[O-])c2)C(=O)N1CC=C` was tested, and the EC50 was “inactive”.
`CC1CCN(Cc2c(C(=O)N/N=C/c3ccc(C(C)(C)C)cc3)nnn2-c2nonc2N)CC1` showed an EC50 of 6.58 µM.
For `CN(C)CCCn1cnc2c(c1=N)C(c1ccccc1)c1ccc3ccccc3c1O2` (stereo not given), the EC50 was 7.75 µM.
`CCCNC(=O)c1ccc2c(=O)c(O)c(-c3ccc(OC)cc3)[nH]c2c1` was tested, and the EC50 was > 80 µM (inactive).
`CC1=C(/C=C/C(C)=C/C=C/C(C)=C/C(=O)Nc2ccc(O)cc2)C(C)(C)CCC1` gave an EC50 of 8.45 µM.
With `O=C(/C=C/c1ccco1)NC(=S)Nc1ccc(O)c(-c2nc3ccccc3s2)c1` the EC50 was 11 µM.
For `Cc1cc(NC(=O)CSc2nc3sc(C)c(C)c3c(=O)n2C2CCCC2)no1`, the EC50 was > 80 µM (inactive).
With `CCCNC(=O)c1c(N)n(-c2ccc3c(c2)OCO3)c2nc3ccccc3nc12` the EC50 was > 80 µM (inactive).
`COc1cc2[nH]c3c(N4CCN(c5ccc(Cl)cc5)CC4)ncnc3c2cc1OC` was tested, and the EC50 was > 80 µM (inactive).
`CN(C)S(=O)(=O)c1ccc(N2CCCC2)c(C(=O)Nc2nccs2)c1` was tested, and the EC50 was “inactive”.
`O=Cc1cc2ccccc2nc1SCc1ccc(Cl)cc1` was tested, and the EC50 was “inactive”.
Work on `c1cc(SC2CCCCC2)cc(-c2nc3cnccn3c2NC2CCCCC2)c1` yielded an EC50 of 12.6 µM.
For `CCC1CCc2c(sc3nc(SCC(=O)NCc4ccco4)n(-c4ccccc4)c(=O)c23)C1` (stereo not given), the EC50 was 15.8 µM.
`COc1ccc2cc3c(N)nn(C(=O)C4CCC(C(C)(C)C)CC4)c3nc2c1` (stereo not given) was tested, and the EC50 was > 80 µM (inactive).
`CC1CCC(C(C)C)C(OC(=O)Cn2c(-c3ccc(Br)cc3)[n+](C)c3ccccc32)C1` (stereo not given) showed an EC50 of 10.9 µM.
Molecule `CCOc1ccc(-c2nnc(SCC(=O)Nc3ccc4c(c3)c3ccccc3n4CC)n2N)cc1` has an EC50 of 14.6 µM.
For `COc1ccc(C(CCNC(C)c2ccccc2)c2ccc(F)cc2)cc1` (stereo not given), the EC50 was “inactive”.
In the case of `CC(C)(C)c1cc(-c2nc(N)nc(N)n2)c(O)c(C(C)(C)C)c1`, the EC50 is reported as “inactive”.
In the case of `COC(=O)Cc1csc(/N=C/c2c(O)n(-c3cccc(C(F)(F)F)c3)c(=O)c3ccccc23)n1`, the EC50 is reported as > 80 µM (inactive).
`NS(=O)(=O)c1ccc(N/N=C2/CCCCC2C2CCCCC2)c([N+](=O)[O-])c1` (stereo not given) was tested, and the EC50 was 15 µM.
For `CCOC(=O)c1nnn2c1nc(Nc1cccc(C(F)(F)F)c1)c1ccccc12`, the EC50 was 10 µM.
For `COc1cc(/C=C(/C#N)c2nc3ccccc3[nH]2)ccc1OCC(=O)Nc1ccccc1C`, the EC50 was 3.77 µM.
For `Cc1ccc(-c2nnn(CC(=O)N(Cc3cccs3)C(C(=O)NC3CCCCC3)c3ccco3)n2)o1` (stereo not given), the EC50 was > 80 µM (inactive).
With `CCOc1cc(/C=C2/NC(=S)NC2=O)ccc1OCc1ccc([N+](=O)[O-])cc1` the EC50 was “inactive”.
In the case of `Cc1ccc(C(=O)C(C(=O)/C=C/c2ccccc2)=C2SCCCS2)cc1`, the EC50 is reported as 11.9 µM.
With `N#C/C(=C\c1ccc(N2CCCC2)c([N+](=O)[O-])c1)c1nc2ccccc2[nH]1` the EC50 was > 80 µM (inactive).
For `Brc1ccc(C2=Nn3c(nnc3-c3n[nH]c4c3CCC4)SC2)cc1`, the EC50 was “inactive”.
For `CCOC(=S)SCC(=O)Nc1nc(-c2ccc(Br)cc2)cs1`, the EC50 was 13 µM.
`COc1ccc(-c2csc(NC(=S)NC(=O)/C=C/c3ccccc3)n2)cc1Br` was tested, and the EC50 was “inactive”.
With `CCOc1cc(/C=N/N=C(\N)c2nonc2N)cc(Br)c1OCc1cccc2ccccc12` the EC50 was > 80 µM (inactive).
Work on `CCOc1ccccc1-n1c(SCC(=O)Nc2ccc(CC)cc2)nc2n[nH]c(C)c2c1=N` yielded an EC50 of 5.3 µM.
Work on `N#CCC(=O)N/N=C/c1cn(Cc2ccc3ccccc3c2)c2ccccc12` yielded an EC50 of 15.6 µM.
With `COc1ccc(C(=O)Nc2cccc(/C=C/c3nc4ccccc4c(=O)[nH]3)c2)cc1` the EC50 was > 80 µM (inactive).
With `O=C(C[C@H]1C/C=C\C[C@@H](NC(=O)OCC2c3ccccc3-c3ccccc32)C(=O)O[C@@H](c2ccccc2)CNC1=O)N[C@H](CO)Cc1ccccc1` the EC50 was 18.1 µM.
In the case of `COc1cc2nc(N3CCN(c4cc(C)ccc4C)CC3)nc(N)c2cc1OC`, the EC50 is reported as 9.19 µM.
With `CN(C)CCCN(C(=O)c1ccc(S(=O)(=O)N2CCCCCC2)cc1)c1nc2ccc(Br)cc2s1` the EC50 was 12.7 µM.
`CC(C)c1ccc(/C=C/C(=O)Nc2nc3ccc([N+](=O)[O-])cc3s2)cc1` was tested, and the EC50 was “inactive”.
In the case of `COc1ccc2cc(C)c3nnc(SCC(=O)Nc4nc(-c5ccc(F)cc5)cs4)n3c2c1`, the EC50 is reported as 13 µM.
`CCc1ccc(NC(=O)C(CC)Sc2nc3cc4c(cc3c(=O)n2Cc2ccco2)OCO4)cc1` (stereo not given) was tested, and the EC50 was > 80 µM (inactive).
`CC1CCC(C(C)C)C(OC(=O)Cn2c(-c3ccc(Cl)cc3)[n+](C)c3ccccc32)C1` (stereo not given) showed an EC50 of 13.4 µM.
For `CC(C)Cn1c2c(c(=O)[nH]c1=O)C(C(F)(F)F)(C(F)(F)F)N=C(CCC1CCCCC1)N2`, the EC50 was “inactive”.
`CC1=C(CC/C(C)=N/NC(N)=S)C(C)(C)CCC1` was tested, and the EC50 was 13.9 µM.
`O=C1NC(=O)N(Cc2ccccc2Cl)C(=O)/C1=C/c1cccs1` showed an EC50 of 13 µM.
`O=C(C[n+]1ccc(-c2cc(C(=O)Nc3cccc(C(F)(F)F)c3)c3ccccc3n2)cc1)c1cccc([N+](=O)[O-])c1` gave an EC50 of 16.8 µM.
With `Brc1cc(Br)c2ncnc(N3CCCCC3)c2c1` the EC50 was “inactive”.
With `CCOc1cc2c3c(c1)C(C)=CC(C)(C)N3C(=O)C2=O` the EC50 was “inactive”.
With `COc1ccccc1C(=O)NC(=S)NNC(=O)c1sc2ccccc2c1Cl` the EC50 was “inactive”.
With `COc1ccc(-c2csc(C3=C(O)CN(Cc4ccc(Cl)cc4)C3=N)n2)cc1OC` the EC50 was > 80 µM (inactive).
`Cn1c(/C=C/c2ccc(Cl)cc2Cl)c([N+](=O)[O-])c(=O)n(C)c1=O` was tested, and the EC50 was 12.8 µM.
With `COc1ccc(N2CCN(Cc3cc(=O)oc4cc(-c5ccccc5)c(O)cc34)CC2)cc1` the EC50 was > 80 µM (inactive).
With `COc1ccc([N+](=O)[O-])cc1COc1ccc2c(-c3ccccc3)cc(=O)oc2c1` the EC50 was “inactive”.
`CCCCCCCCCCOC(=O)Cn1c(COc2ccc(Cl)cc2)[n+](C)c2ccccc21` was tested, and the EC50 was > 80 µM (inactive).
With `Cc1cc(C)c2c(n1)sc1c(-c3ccccc3)c(C#N)c(N)nc12` the EC50 was > 80 µM (inactive).
`CCCCCC(=O)Nc1ccc(C(=O)N/N=C/c2ccc([N+](=O)[O-])cc2)cc1` was tested, and the EC50 was “inactive”.
`O=C(COc1ccc(Cl)cc1Cl)NN=C1c2ccccc2-c2ccccc21` was tested, and the EC50 was “inactive”.
`O=C(Nc1cccc(-c2nc3cccnc3s2)c1)C1c2ccccc2Oc2ccccc21` showed an EC50 of 4.35 µM.
`COc1cc(SC#N)ccc1N=Cc1c(C)[nH]n(-c2ccc(C)c(C)c2)c1=O` was tested, and the EC50 was 17.4 µM.
For `COc1ccccc1-c1sc2cc3c(cc2c1-c1ccc(OCCN2CCCCC2)cc1)OCO3`, the EC50 was 17.7 µM.
With `CCOc1ccc(S(=O)(=O)Nc2cccc(C(=O)NCC3(N4CCCCC4)CCCCC3)c2)cc1` the EC50 was “inactive”.
For `COc1c(Cl)cc(Cl)cc1/C=N/NC(=O)c1nnn(-c2nonc2N)c1CN1CCC(C)CC1`, the EC50 was “inactive”.
For `Oc1cc(-c2cccnc2)cc2cccnc12`, the EC50 was “inactive”.
In the case of `NCCc1c(-c2ccccc2)n(-c2ccccc2)c2ccccc12`, the EC50 is reported as 17.9 µM.
Work on `CCOC(=O)c1ccc(-c2ccc(/C=N/NC(=O)CN(c3cccc(C)c3)S(C)(=O)=O)o2)cc1` yielded an EC50 of 15.5 µM.
In the case of `CCCCCCCCCCOC(=O)Cn1c(COc2ccccc2C)[n+](C)c2ccccc21`, the EC50 is reported as > 80 µM (inactive).
In the case of `O=C(N/N=C/c1ccccc1Cl)c1[nH]c2ccc(Br)cc2c1-c1ccccc1`, the EC50 is reported as “inactive”.
`COc1ccc(NC(=O)c2sc3nc(N4CCOCC4)c4c(c3c2N)CC(C)(C)OC4)c(OC)c1` was tested, and the EC50 was 19.3 µM.
`Cn1cc(/C=C(\C#N)C(=O)Nc2cccc([N+](=O)[O-])c2)c2ccccc21` was tested, and the EC50 was > 80 µM (inactive).
Molecule `Cc1ccc2nc(-c3ccc(NC(=S)NC4CC(C)(C)NC(C)(C)C4)cc3)sc2c1` has an EC50 of 9.04 µM.
`Cc1ccc(NC(=O)CSc2nc3ccccc3c3nc4ccccc4n23)cc1` showed an EC50 of 6.26 µM.
In the case of `CCCCC1CCC(C(=O)N(CC(C)C)c2c(N)n(CCCC)c(=O)[nH]c2=O)CC1` (stereo not given), the EC50 is reported as > 80 µM (inactive).
For `CCCCCCCCCCOC(=O)Cn1c(COc2ccc(C)cc2)[n+](C)c2ccccc21`, the EC50 was > 80 µM (inactive).
`O=C1c2ccccc2C(=O)N1/N=C/c1ccc(O)c(O)c1` was tested, and the EC50 was “inactive”.
For `NS(=O)(=O)c1ccc(N=Cc2c(O)n(C3CCCCC3)c(=O)n(C3CCCCC3)c2=O)cc1`, the EC50 was 14.6 µM.
In the case of `CCOc1ccc(-n2nc3ccc(NC(=O)c4ccc5c(c4)OCCO5)cc3n2)cc1`, the EC50 is reported as “inactive”.
`COc1ccc2[nH]c3c(c2c1)CCN1C(=O)C(CC(=O)NC/C=C(\C)CCC=C(C)C)C[C@H](C(=O)N2CCOCC2)[C@@]31CCC1CCCC1` (stereo not given in full) showed an EC50 of 18.5 µM.
With `O=C(NC(=S)Nc1ccc(NC(=O)c2cccs2)cc1)c1cc2ccccc2o1` the EC50 was “inactive”.
`COc1ccc(Cn2c(SCc3cc(C)ccc3C)nc3cc(OC)c(OC)cc3c2=N)cc1` was tested, and the EC50 was > 80 µM (inactive).
`CC(C)CC(NC(=O)c1ccc(Cl)cc1)C(=O)OCC(=O)c1ccc2c(c1)NC(=O)CO2` (stereo not given) was tested, and the EC50 was > 80 µM (inactive).
`Cc1cc(C)c2c(CCl)cc(=O)oc2c1` gave an EC50 of 19.1 µM.
`COc1cc(NC(=O)c2cccs2)ccc1NC(=O)c1cc2ccccc2o1` was tested, and the EC50 was > 80 µM (inactive).
In the case of `Clc1ccc2c(c1)C(N1CCNCC1)Cc1ccccc1S2` (stereo not given), the EC50 is reported as > 80 µM (inactive).
Work on `CN1/C(=C\C(=O)COC(=O)c2ccc(O)c(O)c2)C(C)(C)c2ccccc21` yielded an EC50 of 6.61 µM.
